Several values for one entry are separate records, joined by “and”; a condition that tells them apart may be missing. Equal entries are not always repeated.
Legend:
[1] = tested on: encephalitogenic lymphocytes; experiment: Chemokine-induced adhesion of murine encephalitogenic T cells to ICAM-1; format: cell-based, SJL mice; settings: for Chemokine-induced Adhesion in encephalitogenic lymphocytes, Mean counts ± S.D., in presence of MIP3-β stimulation: 1 μM CCL19 (MIP-3beta); for Chemokine-induced Adhesion in encephalitogenic lymphocytes, Mean counts ± S.D., in presence of MIP3-β stimulation / Adhesion in encephalitogenic lymphocytes, Mean counts ± S.D., in absence of MIP3-β stimulation: ICAM-1
Summary of the method: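 Murine PLP139-151-reactive T cells from immunized SJL mice were pretreated with compound (5-50 μM, 37° C., 30-60 min or 1 h), then stimulated with 1 μM CCL19 (2-3 min, static) on ICAM-1-coated glass. Bound cells counted after washing and fixation; values are mean counts ±S.D of three experiments.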

NADPH-oxidase = experiment: Respiratory burst (H2O2 assay), NADPH-oxidase activation in PMNs; format: cell-based; settings: PMA 200 ng/ml; 10, 50, 100 μM; FIG. 1a
Method: NADPH-oxidase activation was measured as induction of H2O2 release (derived from dismutation of O2^−) triggered in PMNs and monocytes by PMA (200 ng/ml). Briefly, PMNs and monocytes were pretreated at 37° C. for 30-60 min with test compound at different concentrations, and stimulated with phorbol 12-myristate 13-acetate (PMA, 200 ng/ml) dissolved in 0.5 ml of a standard reaction mixture. Release of H2O2 was evaluated in real time at time points of 5 min by using a microplate fluorescence reader (Perkin-Elmer). Results are expressed as nmoles of H2O2 released over time by 10^6 cells. Shown are dose-response curves of inhibitory effect on H2O2 release over 60 min.

[2] = tested on: experimental autoimmune encephalomyelitis (EAE); format: in vivo; settings: therapeutic
Method: Female SJL/J mice, 6-8 weeks of age, were obtained from Harlan-Nossan Italy. Mice were immunized s.c. with 200 μg PLP139-151 in 0.1 ml emulsion consisting of equal volumes of PBS and CFA (Difco Laboratories, Detroit, Mich.) and containing 6 mg/ml of Mycobacterium tuberculosis H37Ra (Difco). To induce a severe disease, in some experiments 400 ng Pertussis toxin (PTX) was administered i.v. at days 0 and 2 (Constantin, G. et al. Eur. J. Immunol., 28, 3523-3529, 1998). Mice were scored for EAE according to the following scale: 0, no disease; 1, tail weakness; 2, paraparesis; 3, paraplegia; 4, paraplegia with forelimb weakness or paralysis; 5, moribund or dead animals (Brocke S. et al., Autoimmune disease models. Academic Press, San Diego, 1-4, 1994).
The effects of compound of Example 1 (PCT/EP2005/051908) were determined on EAE (experimental autoimmune encephalomyelitis), the animal model of multiple sclerosis (Tables 4 and 5). SJL mice were immunized with PLP139-151 peptide from cerebral proteolipid. The disease model has relapses and remission periods, as described in relapsing-remitting MS, the most frequent form of human disease accounting for 85% of all MS patients.
In the therapeutic model (Table 5), mice received 70 mg/kg of Compound of Example 1 (PCT/EP2005/051908), daily, intraperitoneally, for 11 days starting from the day of clinical onset. The treated mice also received 4 doses intravenously (i.v.) of 10 mg/kg each. Control animals received vehicle (DMSO). Control animals developed disease with a mean day of onset of 13.8±3, while treated mice developed EAE at 13.5±2 days postimmunization. Mean (±S.E.M.) maximum clinical score in control animals was 1.75±0.6.

[3] = tested on: encephalitogenic lymphocytes; experiment: Spontaneous adhesion of encephalitogenic T cells on purified ICAM-1; format: cell-based, SJL mice; settings: Mus musculus, Lymphocyte, 1 h
Summary of the method: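 Autoreactive T cells came from SJL mice immunized with PLP139-151. Cells were pretreated for 1 h with compound at 5-100 μM or DMSO vehicle, then tested for spontaneous adhesion to purified ICAM-1 or VCAM-1. Inhibition is given as percent of vehicle control (100%), mean ± S.D. of three-four experiments.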

## COC(=O)c1[nH]c2cc(OC)c(OC)cc2c1-c1ccc(OC)cc1 [Example 1]
[1]; 5-50 μM for 1 h, 1 μM CCL19
  Block of chemokine-induced autoreactive lymphocyte adhesion, in words: almost complete block
[1]; [cpd] 5 μM
  Chemokine-induced Adhesion in encephalitogenic lymphocytes, Mean counts ± S.D., in presence of MIP3-β stimulation: 10.3 ± 1.0
  Adhesion in encephalitogenic lymphocytes, Mean counts ± S.D., in absence of MIP3-β stimulation: 1.3 ± 1.0
[1]; [cpd] 10 μM
  Chemokine-induced Adhesion in encephalitogenic lymphocytes, Mean counts ± S.D., in presence of MIP3-β stimulation: 7.0 ± 1.0
  Adhesion in encephalitogenic lymphocytes, Mean counts ± S.D., in absence of MIP3-β stimulation: 1.0 ± 1.0
[1]; [cpd] 25 μM
  Chemokine-induced Adhesion in encephalitogenic lymphocytes, Mean counts ± S.D., in presence of MIP3-β stimulation: 5.3 ± 2.0
  Adhesion in encephalitogenic lymphocytes, Mean counts ± S.D., in absence of MIP3-β stimulation: 0.4 ± 0.2
[1]; [cpd] 50 μM
  Chemokine-induced Adhesion in encephalitogenic lymphocytes, Mean counts ± S.D., in presence of MIP3-β stimulation: 3.2 ± 1.0
  Adhesion in encephalitogenic lymphocytes, Mean counts ± S.D., in absence of MIP3-β stimulation: 0.4 ± 0.1
NADPH-oxidase
  NADPH-oxidase activation (H2O2 release) in PMNs, in words: inhibits NADPH-oxidase activation
[2]; 70 mg/kg i.p. daily for 11 days from clinical onset plus 4 i.v. doses of 10 mg/kg
  Mortality: 0/6
[2]; 70 mg/kg i.p. daily for 11 days from clinical onset plus 4 i.v. doses of 10 mg/kg, scale 0-5, ±S.E.M.
  Mean maximum clinical score: 0.89 ± 0.23
[2]; P<0.01
  Inhibition of mean maximum clinical score: 50%
[2]; treatment started at clinical onset
  Mean day of onset: 13.5±2 days postimmunization and 13.5 ± 2.0 days postimmunization
[3]; [cpd] 5 μM, read-out: Inhibition of Spontaneous Adhesion in encephalitogenic lymphocytes (% of control/non-treated cells) ICAM-1
  inhibition at 5 µM: 47%
[3]; [cpd] 10 μM, read-out: Inhibition of Spontaneous Adhesion in encephalitogenic lymphocytes (% of control/non-treated cells) ICAM-1 (converted)
  inhibition at 10 µM: 65%
[3]; [cpd] 25 μM, read-out: Inhibition of Spontaneous Adhesion in encephalitogenic lymphocytes (% of control/non-treated cells) ICAM-1 (converted)
  inhibition at 25 µM: 70%
[3]; [cpd] 50 μM, read-out: Inhibition of Spontaneous Adhesion in encephalitogenic lymphocytes (% of control/non-treated cells) ICAM-1 (converted)
  inhibition at 50 µM: 89%
[3]; [cpd] 100 μM, read-out: Inhibition of Spontaneous Adhesion in encephalitogenic lymphocytes (% of control/non-treated cells) ICAM-1 (converted)
  inhibition at 100 µM: 96%

Reference: patent publication US20080226718A1, “Indole and Azaindole Derivatives For the Treatment of Inflammatory and Autoimmune Diseases” (Brane Discovery S.r.l, priority 2005, published 2008)
